Assay results taken from patent publication US9238619B2, “Phenalkylamine derivatives, pharmaceutical compositions containing them, and their use in therapy” (AbbVie Deutschland GmbH & Co. KG, priority 2010, dated 2016).

Target: human GlyT1c transporter (Homo sapiens (Human), UniProt P48067)
Test: Radioligand binding assays using recombinant CHO cell membranes expressing human GlyT1
Settings: read-out: radioligand binding Kiapp
Description: Radioligand binding to human GlyT1c transporter-expressing membranes was determined as described in Mezler et al., Molecular Pharmacology 74:1705-1715, 2008.

human GlyT1c transporter, sequence (P48067 whole entry): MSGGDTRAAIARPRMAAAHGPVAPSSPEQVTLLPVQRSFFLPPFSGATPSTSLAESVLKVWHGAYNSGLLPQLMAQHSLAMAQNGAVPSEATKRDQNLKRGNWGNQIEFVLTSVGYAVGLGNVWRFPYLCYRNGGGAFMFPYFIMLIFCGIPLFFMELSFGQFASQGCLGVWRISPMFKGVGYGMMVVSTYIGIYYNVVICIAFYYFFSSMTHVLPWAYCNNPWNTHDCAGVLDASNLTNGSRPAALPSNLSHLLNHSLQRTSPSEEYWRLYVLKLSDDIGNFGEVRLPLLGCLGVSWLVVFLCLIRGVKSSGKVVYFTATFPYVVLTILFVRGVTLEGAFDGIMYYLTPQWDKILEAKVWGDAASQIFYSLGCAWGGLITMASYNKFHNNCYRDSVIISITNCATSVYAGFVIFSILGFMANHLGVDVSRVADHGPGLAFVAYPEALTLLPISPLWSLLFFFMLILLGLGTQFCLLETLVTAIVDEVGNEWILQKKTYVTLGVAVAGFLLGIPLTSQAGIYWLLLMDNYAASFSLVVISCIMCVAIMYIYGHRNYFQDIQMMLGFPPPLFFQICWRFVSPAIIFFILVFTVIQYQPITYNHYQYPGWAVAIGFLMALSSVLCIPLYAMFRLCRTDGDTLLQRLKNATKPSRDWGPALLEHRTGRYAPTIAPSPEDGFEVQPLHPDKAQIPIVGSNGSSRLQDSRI

SMILES | Ki
CC(C)N1CCC(Cc2ccccc2)(c2cccc(OCCNS(=O)(=O)c3cn(C)cn3)c2)C1 (centres unmarked) [Example 77, 1-Methyl-1H-imidazole-4-sulfonic acid {2-[3-(3-benzyl-1-isopropyl-pyrrolidin-3-yl)-phenoxy]-ethyl}-amide] | ≤ 1000 nM
CN1CC(Cc2ccccc2)(c2cccc(OCCNS(=O)(=O)c3cn(C)cn3)c2)C1 [Example 78, 1-Methyl-1H-imidazole-4-sulfonic acid {2-[3-(3-benzyl-1-methyl-azetidin-3-yl)phenoxy]-ethyl}-amide] | ≤ 100 nM
